Results published in patent publication US8372822B2, “Polymorphs of eltrombopag and eltrombopag salts and processes for preparation thereof” (Pliva Hrvatska D.O.O., priority 2009, dated 2013).
Blank lines part the entries; values can stand above or below the molecule they belong to.

How the values were obtained:
Format in all cases: physicochemical
[1] = Hygroscopicity: absorption of atmospheric water, measured by TGA; conditions: relative humidity of 80%, 100% at room temperature, non-hygroscopic = less than 0.2% (w/w) absorption of atmospheric water by TGA
Description: As used herein the term non-hygroscopic in relation to crystalline Eltrombopag refers to less than 0.2% (w/w) absorption of atmospheric water to the crystalline Eltrombopag in the above specified conditions, as measured by TGA.

[2] = Thermo-dynamical stability: conversion to other solid state forms under heating, measured by XRPD; conditions: heating up to 200° C. at 10° C./minute, defined as less than 20%, 5%, 1%, or 0.5% conversion to any other solid state form by XRPD
Description: As used herein the term “thermo-dynamical stability” in relation to crystalline Eltrombopag form I refers to less than 20%, 10%, 5%, 1%, or 0.5% conversion of crystalline Eltrombopag form Ito any other solid state form of Eltrombopag under heating up to temperature of 200° C. at a heating rate of 10° C./minute, as measured by XRPD. In some embodiments, the conversion is 1%-20%, 1%-10% or 1%-5%.

Solubility = assay: Solubility

hygroscopicity ([1]; at least 5 months): non-hygroscopic
SMILES: CC1=NN(c2ccc(C)c(C)c2)C(=O)/C1=N\Nc1cccc(-c2cccc(C(=O)O)c2)c1O [Eltrombopag form XVI]

hygroscopicity ([1]; at least 10 months): non-hygroscopic
SMILES: CC1=NN(c2ccc(C)c(C)c2)C(=O)/C1=N\Nc1cccc(-c2cccc(C(=O)O)c2)c1O [Eltrombopag form III]

thermo-dynamical stability [2]: advantageous
solubility (Solubility; medium not stated): advantageous
SMILES: CC1=NN(c2ccc(C)c(C)c2)C(=O)/C1=N\Nc1cccc(-c2cccc(C(=O)O)c2)c1O [Eltrombopag form I]

solubility in water (Solubility; water): highly soluble in water
SMILES: CC1=NN(c2ccc(C)c(C)c2)C(=O)/C1=N\Nc1cccc(-c2cccc(C(=O)O)c2)c1O [Eltrombopag bisethanolamine form II]
